Results published in the supplement of paper PMC10307832.

What was measured:
Assay in all cases: relative viability (nuclei count vs DMSO), 5 days (fraction); higher = more cells survive
[1] = compound: C1=CC=C(C(=C1)C2=CC=C(C=C2)C3=CSC4=C3C(=C(C(=O)N4)C#N)O)O + Cc1nc(Nc2ncc(C(=O)Nc3c(C)cccc3Cl)s2)cc(N2CCN(CCO)CC2)n1 [Dasatinib] (partner 0.075 µM)
Summary of the method: (§1)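 Lung cancer cell lines were pin-tool dosed in 1536-well plates on the day after seeding, with either a lone drug or a fixed anchor-drug dose plus five library-drug doses (not always all listed) in √10 steps. Nuclei were counted on 4× images after 5 days. Relative viability is the ratio of treated-well to vehicle-well nuclei counts, with each value a median of duplicate plates.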

[2] = compound: C1=CC=C(C(=C1)C2=CC=C(C=C2)C3=CSC4=C3C(=C(C(=O)N4)C#N)O)O + NC(=O)Nc1cc(-c2cccc(F)c2)sc1C(=O)N[C@H]1CCCNC1 [AZD7762] (partner 0.2 µM)
Summary of the method: as §1

TGX 221 + AZD7762 = compound: CC1=CN2C(=O)C=C(N=C2C(=C1)C(C)NC3=CC=CC=C3)N4CCOCC4 [TGX 221] + NC(=O)Nc1cc(-c2cccc(F)c2)sc1C(=O)N[C@H]1CCCNC1 [AZD7762] (partner 0.2 µM)
Summary of the method: as §1

Ricolinostat + Olaparib = compound: O=C(CCCCCCNC(=O)c1cnc(N(c2ccccc2)c2ccccc2)nc1)NO [Ricolinostat] + O=C(c1cc(Cc2n[nH]c(=O)c3ccccc23)ccc1F)N1CCN(C(=O)C2CC2)CC1 [Olaparib] (partner 8 µM)
Summary of the method: as §1

Cell Line	relative viability ([1]; first compound 0.08 µM)	relative viability ([1]; first compound 0.253 µM)	relative viability ([1]; first compound 0.8 µM)	relative viability ([1]; first compound 2.53 µM)	relative viability ([1]; first compound 8 µM)	relative viability ([2]; first compound 0.08 µM)	relative viability ([2]; first compound 0.253 µM)	relative viability ([2]; first compound 0.8 µM)	relative viability ([2]; first compound 2.53 µM)	relative viability ([2]; first compound 8 µM)	relative viability (TGX 221 + AZD7762; first compound 0.08 µM)	relative viability (TGX 221 + AZD7762; first compound 0.253 µM)	relative viability (TGX 221 + AZD7762; first compound 0.8 µM)	relative viability (TGX 221 + AZD7762; first compound 2.53 µM)	relative viability (TGX 221 + AZD7762; first compound 8 µM)	relative viability (Ricolinostat + Olaparib; first compound 0.08 µM)	relative viability (Ricolinostat + Olaparib; first compound 0.253 µM)	relative viability (Ricolinostat + Olaparib; first compound 0.8 µM)	relative viability (Ricolinostat + Olaparib; first compound 2.53 µM)
201T	0.564	0.597	0.521	0.516	0.654	0.634	0.616	0.652	0.704	0.717	0.55	0.685	0.611	0.615	0.569	0.785	0.845	0.891	0.806
A549																	0.252	0.286	0.139
A-427	0.645	0.67	0.716	0.658	0.619	0.672	0.81	0.746	0.776	0.716	0.728	0.712	0.8	0.762	0.698	0.572	0.762	0.586	0.594
ABC-1	0.526	0.65	0.559	0.542	0.432	0.781	0.881	0.799	0.855	0.827	0.859	0.908	0.743	0.749	1.08	0.781	1.05	1.08	1.01
BEN	0.287	0.284	0.312	0.318	0.318	0.647	0.692	0.675	0.807	0.73	0.639	0.695	0.737	0.697	0.661	1.05	0.995	0.999	1.02
CAL-12T	0.389	0.353	0.435	0.36	0.362	0.671	0.653	0.571	0.615	0.648	0.637	0.656	0.542	0.577	0.666	0.739	0.732	0.701	0.77
COR-L23	0.492	0.48	0.61	0.548	0.272											0.247	0.315	0.267	0.168
COR-L 105	0.337	0.301	0.272	0.302	0.309											0.61	0.686	0.797	0.962
Calu-6																0.548	0.526	0.562	0.419
ChaGo-K-1	0.48	0.614	0.661	0.595	0.542	0.834	0.936	0.904	0.92	0.838	0.922	0.826	0.873	0.827	0.838	0.464	0.395	0.364	0.324
EBC-1																0.638	0.618	0.571	0.352
EKVX	0.47	0.724	0.671	0.621	0.403	0.696	0.699	0.725	0.746	0.595	0.685	0.607	0.601	0.579	0.594	0.638	0.897	0.853	0.836
